The values that follow come from ChEMBL document CHEMBL2176918, “Design and optimization of pyrazinecarboxamide-based inhibitors of diacylglycerol acyltransferase 1 (DGAT1) leading to a clinical candidate dimethylpyrazinecarboxamide phenylcyclohexylacetic acid (AZD7687)” (J Med Chem, 2012).

One data set deals with Rattus norvegicus. The data set is described as follows: Inhibition of adipose triacylglycerol synthesis in 14 hrs fasted Han-Wistar rat assessed as decrease in ratio of [3H]palmitic acid incorporation in to TAG and DAG at 8 mg/kg administered orally and measured 1.5 hrs post dose relative to control.
For data set [1], the target named is T1, Fatty-acid amide hydrolase 1 (Homo sapiens, UniProt O00519).
T1 sequence (O00519 whole entry): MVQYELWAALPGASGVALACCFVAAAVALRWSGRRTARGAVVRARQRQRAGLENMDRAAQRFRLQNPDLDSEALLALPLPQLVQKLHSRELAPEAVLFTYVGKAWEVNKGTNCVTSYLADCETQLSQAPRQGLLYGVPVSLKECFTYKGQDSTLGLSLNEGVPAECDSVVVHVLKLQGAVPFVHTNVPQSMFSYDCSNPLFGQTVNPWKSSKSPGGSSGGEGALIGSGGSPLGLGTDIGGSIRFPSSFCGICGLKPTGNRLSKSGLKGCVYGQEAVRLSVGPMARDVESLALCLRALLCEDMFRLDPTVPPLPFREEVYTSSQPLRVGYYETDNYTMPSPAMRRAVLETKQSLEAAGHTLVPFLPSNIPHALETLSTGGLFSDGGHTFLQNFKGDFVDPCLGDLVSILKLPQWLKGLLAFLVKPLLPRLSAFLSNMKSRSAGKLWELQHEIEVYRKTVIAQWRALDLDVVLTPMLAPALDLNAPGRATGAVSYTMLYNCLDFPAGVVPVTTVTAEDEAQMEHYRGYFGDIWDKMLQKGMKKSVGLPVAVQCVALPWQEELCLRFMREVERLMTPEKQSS
The data set is described as follows: Inhibition of FAAH.

Data set [2] can be described thus: Clearance in Han-Wistar rat at 5.4 uM/kg, po or 2.7 uM/kg, iv. Format: ADME, organism-based. The following applies: in vivo.
Data set [3] in a line: Photostability stability by Hanau sun test. Format: physicochemical.
A short description of data set [4]: Intrinsic clearance in human hepatocytes assessed as parent compound disappearance at 1 uM per 10^6 cells. The following applies: read-out: CLH. Format: ADME, cell-based, Hepatocyte.
The target of another data set is Cytochrome P450 2D6 (Homo sapiens, UniProt P10635). As to the kind of experiment: Inhibition of CYP2D6. The data set is classed as ADME.
Sequence of Cytochrome P450 2D6 (P10635 whole entry): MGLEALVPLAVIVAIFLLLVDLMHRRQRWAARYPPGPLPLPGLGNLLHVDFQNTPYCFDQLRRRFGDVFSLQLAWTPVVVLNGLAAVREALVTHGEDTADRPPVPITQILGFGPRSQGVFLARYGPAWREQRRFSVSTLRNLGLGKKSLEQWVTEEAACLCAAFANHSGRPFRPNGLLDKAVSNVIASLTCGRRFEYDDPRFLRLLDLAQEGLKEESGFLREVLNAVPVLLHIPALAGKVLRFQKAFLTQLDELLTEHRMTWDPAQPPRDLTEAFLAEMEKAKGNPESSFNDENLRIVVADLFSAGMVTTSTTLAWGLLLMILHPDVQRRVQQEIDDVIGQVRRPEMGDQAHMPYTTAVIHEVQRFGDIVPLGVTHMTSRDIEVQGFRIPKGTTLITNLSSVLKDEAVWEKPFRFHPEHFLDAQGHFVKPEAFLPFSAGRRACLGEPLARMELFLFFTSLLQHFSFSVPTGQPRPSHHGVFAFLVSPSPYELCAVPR
In the next data set the target is Cytochrome P450 2C19 (Homo sapiens, UniProt P33261). The data set is described as follows: Inhibition of CYP2C19. The data set is classed as ADME.
Sequence of Cytochrome P450 2C19 (P33261 whole entry): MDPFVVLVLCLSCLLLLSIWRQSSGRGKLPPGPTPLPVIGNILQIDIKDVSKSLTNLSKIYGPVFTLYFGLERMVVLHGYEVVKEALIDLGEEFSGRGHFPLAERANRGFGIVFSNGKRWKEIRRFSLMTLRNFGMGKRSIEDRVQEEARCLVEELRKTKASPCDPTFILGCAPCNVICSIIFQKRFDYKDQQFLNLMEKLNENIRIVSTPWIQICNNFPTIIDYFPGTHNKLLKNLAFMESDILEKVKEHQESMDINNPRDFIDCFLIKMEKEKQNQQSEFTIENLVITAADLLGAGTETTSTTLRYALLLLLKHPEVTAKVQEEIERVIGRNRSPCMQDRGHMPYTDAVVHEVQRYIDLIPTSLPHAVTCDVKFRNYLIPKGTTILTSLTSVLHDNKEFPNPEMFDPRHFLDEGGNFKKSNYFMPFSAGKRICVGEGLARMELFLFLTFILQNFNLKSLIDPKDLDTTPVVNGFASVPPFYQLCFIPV
In data set [5] the target is Voltage-gated inwardly rectifying potassium channel KCNH2 (Homo sapiens, UniProt Q12809). As to the kind of experiment: Inhibition of human ERG.
Sequence of Voltage-gated inwardly rectifying potassium channel KCNH2 (Q12809 whole entry): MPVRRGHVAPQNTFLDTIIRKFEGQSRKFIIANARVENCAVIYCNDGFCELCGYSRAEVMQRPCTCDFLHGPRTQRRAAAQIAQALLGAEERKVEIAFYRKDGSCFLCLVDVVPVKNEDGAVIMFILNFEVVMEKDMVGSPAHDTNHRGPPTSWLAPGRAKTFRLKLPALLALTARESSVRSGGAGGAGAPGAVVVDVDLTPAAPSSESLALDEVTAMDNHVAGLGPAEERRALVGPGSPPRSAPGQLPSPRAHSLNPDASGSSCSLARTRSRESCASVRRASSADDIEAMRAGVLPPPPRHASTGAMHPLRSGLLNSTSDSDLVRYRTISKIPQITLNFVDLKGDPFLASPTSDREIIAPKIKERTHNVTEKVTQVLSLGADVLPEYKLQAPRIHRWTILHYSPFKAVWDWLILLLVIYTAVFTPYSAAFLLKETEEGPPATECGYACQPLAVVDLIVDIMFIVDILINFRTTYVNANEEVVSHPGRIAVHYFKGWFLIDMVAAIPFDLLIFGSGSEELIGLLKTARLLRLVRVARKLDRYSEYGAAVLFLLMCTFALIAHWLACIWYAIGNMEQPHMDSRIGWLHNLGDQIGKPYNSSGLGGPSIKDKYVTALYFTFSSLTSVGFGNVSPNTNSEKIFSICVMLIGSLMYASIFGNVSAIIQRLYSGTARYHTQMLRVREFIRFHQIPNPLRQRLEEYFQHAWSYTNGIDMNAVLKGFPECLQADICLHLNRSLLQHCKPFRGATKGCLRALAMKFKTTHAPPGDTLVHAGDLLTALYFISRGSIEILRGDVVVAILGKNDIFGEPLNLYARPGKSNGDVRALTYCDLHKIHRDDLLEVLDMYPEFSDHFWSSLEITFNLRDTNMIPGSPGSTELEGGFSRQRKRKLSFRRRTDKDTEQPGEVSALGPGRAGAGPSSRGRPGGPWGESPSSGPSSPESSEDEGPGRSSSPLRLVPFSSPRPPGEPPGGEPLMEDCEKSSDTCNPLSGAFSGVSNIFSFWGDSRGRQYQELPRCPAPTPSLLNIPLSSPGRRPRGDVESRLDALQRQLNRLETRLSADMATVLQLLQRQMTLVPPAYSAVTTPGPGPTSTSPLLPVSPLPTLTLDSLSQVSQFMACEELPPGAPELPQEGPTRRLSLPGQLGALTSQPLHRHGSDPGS
Data set [6] deals with T2, Diacylglycerol O-acyltransferase 1 (Mus musculus, UniProt Q9Z2A7).
T2 sequence (Q9Z2A7 whole entry): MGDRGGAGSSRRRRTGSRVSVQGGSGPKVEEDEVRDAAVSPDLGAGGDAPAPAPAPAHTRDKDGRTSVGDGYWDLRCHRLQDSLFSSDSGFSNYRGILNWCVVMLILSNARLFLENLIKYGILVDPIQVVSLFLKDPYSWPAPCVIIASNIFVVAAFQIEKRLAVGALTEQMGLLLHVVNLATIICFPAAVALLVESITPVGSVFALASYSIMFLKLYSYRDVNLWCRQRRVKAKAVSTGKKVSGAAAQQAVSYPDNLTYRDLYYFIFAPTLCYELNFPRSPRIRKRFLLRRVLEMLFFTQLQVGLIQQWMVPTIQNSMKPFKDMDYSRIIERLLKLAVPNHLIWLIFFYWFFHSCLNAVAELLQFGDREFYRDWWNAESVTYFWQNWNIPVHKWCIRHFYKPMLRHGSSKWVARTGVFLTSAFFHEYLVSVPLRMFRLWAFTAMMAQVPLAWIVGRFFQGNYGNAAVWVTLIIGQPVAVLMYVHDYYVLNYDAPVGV
The data set is described as follows: Inhibition of DGAT1 in mouse liver microsomes. The arrangement: species or system Microsome.

Data set [7] deals with T3, Sterol O-acyltransferase 2 (Homo sapiens, UniProt O75908).
T3 sequence (O75908 whole entry): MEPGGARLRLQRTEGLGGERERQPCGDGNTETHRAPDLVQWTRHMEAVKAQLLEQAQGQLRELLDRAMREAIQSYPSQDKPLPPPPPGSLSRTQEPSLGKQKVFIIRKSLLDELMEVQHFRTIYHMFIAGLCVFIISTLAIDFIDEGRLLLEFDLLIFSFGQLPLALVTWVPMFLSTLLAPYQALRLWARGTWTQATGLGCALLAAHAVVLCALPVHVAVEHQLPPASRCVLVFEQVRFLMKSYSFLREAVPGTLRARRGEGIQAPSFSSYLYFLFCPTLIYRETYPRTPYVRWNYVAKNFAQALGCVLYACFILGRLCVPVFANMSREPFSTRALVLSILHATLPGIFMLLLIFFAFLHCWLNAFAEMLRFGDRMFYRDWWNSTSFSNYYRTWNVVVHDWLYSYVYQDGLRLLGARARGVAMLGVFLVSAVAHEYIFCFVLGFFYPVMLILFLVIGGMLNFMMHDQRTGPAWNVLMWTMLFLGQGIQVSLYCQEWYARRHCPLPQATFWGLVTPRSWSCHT
The data set is described as follows: Inhibition of human ACAT2 by liquid scintillography.

A short description of data set [8]: Half life in Han-Wistar rat at 2.54 to 5.4 uM/kg, po. The data set is classed as ADME, organism-based. The conditions noted are these: in vivo.
The nature of data set [9]: Intrinsic clearance in rat hepatocytes assessed as parent compound disappearance at 1 uM per 10^6 cells. The following applies: read-out: CLH. Format: ADME, cell-based, Hepatocyte.
Data set [10] has as its target T4, Diacylglycerol O-acyltransferase 1 (Homo sapiens, UniProt O75907).
T4 sequence (O75907 whole entry): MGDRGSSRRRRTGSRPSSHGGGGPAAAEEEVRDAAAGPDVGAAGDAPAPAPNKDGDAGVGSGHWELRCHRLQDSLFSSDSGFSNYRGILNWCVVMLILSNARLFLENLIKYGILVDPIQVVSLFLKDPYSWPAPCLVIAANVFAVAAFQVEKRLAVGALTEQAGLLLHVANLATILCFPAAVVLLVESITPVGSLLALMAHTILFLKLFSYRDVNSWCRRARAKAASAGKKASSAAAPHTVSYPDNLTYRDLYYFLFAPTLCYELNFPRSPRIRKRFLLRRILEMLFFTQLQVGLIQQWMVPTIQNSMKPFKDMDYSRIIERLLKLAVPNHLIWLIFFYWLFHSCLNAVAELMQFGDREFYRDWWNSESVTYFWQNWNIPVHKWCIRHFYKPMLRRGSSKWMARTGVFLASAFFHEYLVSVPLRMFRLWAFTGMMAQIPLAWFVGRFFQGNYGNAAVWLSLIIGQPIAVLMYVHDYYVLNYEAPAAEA
Description: Inhibition of human recombinant DGAT1 expressed in Sf9 cells by liquid scintillography

Each structure is given as a SMILES string.

Turning to `Cc1nc(C)c(-c2ccc(C3CCC(CC(=O)O)CC3)cc2)nc1C(N)=O` (stereo not drawn) [AZD-7687], the IC50 with Rattus norvegicus is 0.132 µM; in [1], 3.7 µM; at Cytochrome P450 2D6 it was above 30 µM; at Cytochrome P450 2C19, above 30 µM; in data set [5] it was above 32 µM; in data set [6], 0.1 µM. For the same compound, the IC50 in [7] is above 10 µM; in data set [10], 0.08 µM. In data set [2], this compound had a clearance of 0.5 mL/min/kg. In addition, the half-life is 7.6 h in [3] and 14 h in data set [8]. Besides, the hepatocyte CLint at 1 µM in data set [4] and in data set [9] was below 2 µL/min/1e6 cells throughout.
